Melting point data for 90 compounds are collected here from a melting point compilation (Tetko et al.; mined from patent text by program, amines drawn as free bases though some values may be those of a salt).

Broadly, the melting point is the temperature of the solid-liquid transition.

`CCCOc1ccc(CC(=O)NCCc2ccc(OCC)c(OCC)c2)cc1OCCC` yielded a melting point of 99 °C.

For the compound `O=C(Nc1c(C(O)(C(F)(F)F)C(F)(F)F)ccc2ccccc12)c1cc2ccccc2s1`, the melting point was 132 to 134 °C.

Compound `CC(C)c1nc2c(N)nc3ccccc3c2s1` yielded a melting point of 163 to 165 °C.

For `Nc1cc(=O)n(CC2CCCCC2)c(=O)n1CC1CCCCC1`, the melting point was in the range of 138 to 141 °C.

`COc1cc(-c2csc(CN(C)C(=O)OC(C)(C)C)n2)cc(OC)c1OC(C)=O` registered a melting point of 135 to 137 °C.

Regarding `COc1cccc(CC(=O)N[C@H]2N=C(c3ccccc3)c3ccccc3N(C)C2=O)c1`, the melting point lay within 198 to 199 °C.

In turn, `O=Cc1nnc2n1-c1ccc(Cl)cc1C(c1ccccc1)=NC2` came in with a melting point of 133 to 135 °C.

`O=C1CSc2ccc(S(=O)(=O)Cl)cc2N1` returned a melting point of 165 to 167 °C.

Turning to `CCOc1ccc2c(c1)n(C1CCCCC1)c(=O)n2S(=O)(=O)c1ccc(C(=O)NC23CC4CC(CC(C4)C2)C3)cc1OC`, the melting point was 228 °C.

`N#C/C=C1\CCc2cc(Br)c3c(c21)CCO3` gave a melting point of 200 to 203 °C.

As for `O=c1[nH]nc2n1-c1ccc(Cl)nc1C(c1ccccc1)=NC2`, the melting point lay in the range of 222 to 224 °C.

On to `CCOC(=O)CN1C(=O)CSC1=Nc1cc(-n2c(=O)cc(C(F)(F)F)n(C)c2=O)c(F)cc1Cl`, for which the melting point fell in the range of 67 to 87 °C.

`CC(C)(C)OC(=O)CCc1ccnc(-c2nc(=O)c3ccccc3s2)c1` registered a melting point of 136 to 137 °C.

In turn, `COC(=O)c1nc2cc(OC)ccc2c(O)c1C(=O)OC` yielded a melting point of 202 to 204 °C.

As for `O=C1CCC(O)(c2ccc3c(c2)OCO3)CC1`, the melting point fell in the range of 162 to 164 °C.

`C=CCN1Cc2cc(Br)ccc2C1=O` had a melting point of 58 to 60 °C.

As to `N#CC1=C(Cl)CN(COC(=O)CNC(=O)CNC(=O)c2ccccc2)C1(c1ccc(Cl)cc1)C(F)(F)F` (stereo not given), the melting point was in the range of 65 to 67 °C.

On to `CC(C)(C)NC(=O)N1CC(Oc2ccc(C(F)(F)F)cc2)C1`, for which the melting point lay within 145 to 146 °C.

The compound `O=C(CCc1ccncc1)c1c(O)c2cccnc2n(-c2ccccc2)c1=O` showed a melting point of 206 to 208 °C.

`O=C1CCN(c2ccncn2)CC1`: the melting point was 61 to 65 °C.

On to `O=C(NCCc1cccs1)C1CC2C=CC1C2` (stereo not given), for which the melting point lay within 71 to 72 °C.

As for `Cc1ccccc1C(=O)CN1C(=O)C(NC(=O)c2cc3ccccc3[nH]2)N=C(C2CCCCC2)c2cccc(C)c21` (racemic), the melting point lay within 127 to 145 °C.

`Cc1nc2c(OCc3c(Cl)ccc(S(=O)(=O)N4CCC[C@H]4C(=O)NCc4ccc(C=NN)cc4)c3Cl)cccn2c1C` came in with a melting point of 144 to 146 °C.

Take `Cc1cc(NC(=O)Nc2ccc(N(CCCl)CCCl)cc2)cc(Nc2c3ccccc3nc3ccccc23)c1`: the melting point fell in the range of 280 to 285 °C.

`O=[N+]([O-])c1cc2ccccc2c2nccnc12` displayed a melting point of 163 to 165 °C.

For `O=C(c1ccccc1)c1ccccc1SSc1ccccc1C(=NO)c1ccccc1`, the melting point was 191 to 193 °C.

`c1ccc(-n2c(-c3cccnc3)nc3ccccc32)cc1` gave a melting point of 110 to 112 °C.

Compound `CCCCCCCCCCOc1cc(OCCCCCCc2cccc(O)c2O)cc(C(=O)OC)c1` came in with a melting point of 71 to 72 °C.

Compound `COc1cccc(C(=O)N(C)Cc2cccc3c2C(=O)N(C2CCC(=O)NC2=O)C3=O)c1` (stereo not given) came in with a melting point of 216 to 218 °C.

Take `Cc1cccc2c1C(=O)C(CO)(CO)CS2`: the melting point was 138 to 142 °C.

On to `CN1C(=O)CC(=O)N(C)c2ccccc21`, for which the melting point lay within 240 to 242 °C.

Turning to `O=C(O)c1cc2ccc(OCc3ccccc3)cc2oc1=O`, the melting point was in the range of 196 to 197 °C.

Consider `CCOCc1nc2c(N)nc3c(c2n1NCCCNC(=O)NC(C)C)CCCC3`, for which the melting point lay within 185 to 187 °C.

`CC(C)(C)CC(=O)c1ccc(O)c(Cl)c1Cl` had a melting point of 156 to 158 °C.

In turn, `Cc1nn2c(-c3cc(Cl)ccc3Cl)ccnc2c1C(N)=O` gave a melting point of 234 to 236 °C.

In turn, `N#Cc1cccc(-c2nc(N3CCC(O)C3)cc3cccnc23)c1` (stereo not given) displayed a melting point of 132 to 133 °C.

The compound `O=C(Cl)C=Cc1ccc(Cl)cc1` gave a melting point of 78 to 80 °C.

`OC(Cc1nnn[nH]1)(Cn1cncn1)c1ccc(Cl)cc1Cl` (stereo not given) had a melting point of 214 to 215 °C.

The compound `Cn1cc(C=O)c2ccc3oc4ccccc4c3c21` yielded a melting point of 163 to 165 °C.

Consider `CC(=O)c1ccc(C2=NC[C@@H](OC(=O)Nc3ccccc3)[C@H](c3ccccc3)O2)cc1` (racemic), for which the melting point was found to be 168 °C.

`COc1cc(C(C)=O)ccc1OCCCN1CCC(C(O)(c2ccc(F)c(F)c2)c2ccc(F)c(F)c2)CC1` had a melting point of 143 to 146 °C.

The compound `CCCSc1cc2c(c3c1OC(C)(C)C3)C(c1cccc(C(=O)O)c1)=NC(C)(C)C2` gave a melting point of 206 to 208 °C.

`Cc1noc(NS(=O)(=O)c2ccsc2C(=O)NCc2ccccc2)c1Br` registered a melting point of 186 to 190 °C.

Consider `COc1cc(C2CC(=O)NC(=O)C2)cc2c(C)c(C)oc12`, for which the melting point is 220 to 222 °C.

Consider `CSc1cc2cccc(NS(=O)(=O)c3cccs3)c2[nH]1`, for which the melting point was in the range of 102 to 103 °C.

The compound `Cn1ncc(C#N)c1-c1ccc([N+](=O)[O-])o1` yielded a melting point of 150 to 152 °C.

`O=C1NC(=O)C2(CC(Br)c3ccccc32)N1` (stereo not given) gave a melting point of 58 to 65 °C.

`CCOC(=O)CNCP(=O)(O)O`: the melting point is greater than 220 °C.

Turning to `O=C(COC(=O)c1nocc1Br)NCCO[N+](=O)[O-]`, the melting point was in the range of 98 to 99 °C.

`CCNC(=O)[C@@H]1C[C@H](SCc2ccc(OC)cc2)CN1C(=O)OC(C)(C)C` had a melting point of 92 to 94 °C.

As for `CCOC(=O)CNC(=O)NCc1cccc2c1C(=O)N(C1CCC(=O)NC1=O)C2=O` (stereo not given), the melting point was 187 to 189 °C.

`N#Cc1cncc(-c2ccc3c(c2)C2(CCCCC2)C(=O)N3)c1`: the melting point lay in the range of 232 to 234 °C.

In turn, `Nc1cc(C(=O)O)cc(S(N)(=O)=O)c1-c1ccccc1` gave a melting point of 232 to 237 °C.

With `O=C(Nc1ccccc1)C1=C(O)c2cccc(-c3ccccc3)c2OS1`, the melting point came to 175 °C.

For the compound `CS(=O)(=O)c1ccc(-c2cc(=O)n(C3CCCCC3)nc2-c2ccc(F)cc2)cc1`, the melting point was in the range of 86 to 90 °C.

In turn, `CNC(=O)Nc1scc(C(C)C)c1C#N` showed a melting point of 179 to 181 °C.

The compound `COc1ccc(CNC(=O)c2ccc(Cl)cc2OCC(=O)O)cc1` gave a melting point of 178 to 179 °C.

`CCc1nc(Cl)c(C(=O)N(C)CC)n1Cc1ccc2oc(-c3ccccc3NC(=O)OC(C)(C)C)c(Br)c2c1` had a melting point of 95 to 96 °C.

Consider `COc1ccc(C(=O)Nc2ccccc2C(O)c2ccccn2)cc1` (stereo not given), for which the melting point turned out to be 128 °C.

As for `CN(C)c1nc(Nc2cc(C(=O)NC3CCC3)n[nH]2)c2occc2n1`, the melting point was determined as 250 °C.

In turn, `Nc1ccc2c(c1)CS(=O)(=O)N2CCF` gave a melting point of 119 to 121 °C.

As to `Cc1cccc(C)c1C(=O)Nc1cccc2c1CCN(C)C2`, the melting point is 200 to 201 °C.

For the compound `Cc1cc(C)c2ccc(N)nc2n1`, the melting point fell in the range of 215 to 220 °C.

`CC1(C(=O)Cc2ccc(Cl)cc2[N+](=O)[O-])CC=CS1` (stereo not given) registered a melting point of 142 to 143 °C.

In the case of `O=C(O)CC(Cc1ccccc1[N+](=O)[O-])C(=O)O` (stereo not given), the melting point was 135 to 138 °C.

Take `Cc1cc(Nc2cc(Cl)nc(-c3ccccc3)n2)[nH]n1`: the melting point was 235 to 236 °C.

On to `N#Cc1c(O)nc2onc(-c3ccccc3)c2c1N`, for which the melting point was 251 °C.

In turn, `CC(C)(C)C1CCC(C(=O)Nc2ccncc2)CC1` (stereo not given) displayed a melting point of 150 to 151 °C.

Regarding `CCOC(=O)c1ncoc1-c1cc(OC)c(OC)c([N+](=O)[O-])c1`, the melting point was 109 to 110 °C.

Compound `Cc1cc(N(C)c2ccccc2)c2nn(C)cc2n1` came in with a melting point of 252 to 256 °C.

Compound `Cc1cc(Cl)ccc1N1CCCNC1=S` had a melting point of 266 to 268 °C.

`COc1c(F)ccc2c(C3CCN(C(=O)OC(C)(C)C)CC3)noc12` yielded a melting point of 94 to 96 °C.

For the compound `CC(C)(C)c1ccc(N2C[C@H](Cn3ccnn3)OC2=O)cc1`, the melting point fell in the range of 140 to 142 °C.

In turn, `CC(=O)OC1CC2C3CCC(C(C)CCCC(C)C)C3(C)CCC2C2(C)CC(F)C(O)CC12` (stereo not given) registered a melting point of 148 to 150 °C.

For the compound `CCCCCCCCCCCCOc1cc(N)c(OCCCCCCCCCCCC)cc1N`, the melting point lay in the range of 75 to 76 °C.

In the case of `CCCn1c(=O)c2[nH]c(-c3cc(C)n(CC(=O)Nc4ccc(OC)c(OC)c4)n3)nc2n(CCC)c1=O`, the melting point is 285 to 290 °C.

`CCOC(=O)CNC(=O)Nc1ccc(S(=O)(=O)Nc2onc(C)c2C)cc1` displayed a melting point of 115 to 125 °C.

The compound `O=S1(=O)N=CN(C2CC2)c2cc(I)ccc21` yielded a melting point of 304 to 307 °C.

Compound `Cc1ccc(Sc2cc([N+](=O)[O-])cc3c2C(=O)OC3=O)cc1` had a melting point of 180 to 182 °C.

Consider `O=C1c2ccccc2C(=O)N1CC#CC1=CCN=C(c2ccccc2F)c2cc(Cl)ccc21`, for which the melting point is 164 to 165 °C.

Take `Cc1cc(Cl)c2ccc(Cl)cc2c1CCC=O`: the melting point was 104 to 106 °C.

Turning to `CN(C(=O)Nc1nc(OCC(F)(F)F)nc(OCC(F)(F)F)n1)c1ccc(Cl)cc1`, the melting point was 218 to 219 °C.

In turn, `CCc1noc(-c2ncc3[nH]c4cccc(OCc5ccccc5)c4c3c2COC)n1` showed a melting point of 180 to 184 °C.

For the compound `Cc1[nH]cnc1CC1CCc2[nH]c3c(F)cccc3c2C1=O` (stereo not given), the melting point is 135 to 140 °C.

`COC(=O)c1cc(I)c(OC)c2c1OCO2` registered a melting point of 162 to 164 °C.

`CN1CCN(c2nccc(Oc3ccc(NC(=O)c4cc(F)cc(N5CCCCC5)c4)c4ccccc34)n2)CC1` came in with a melting point of 182 to 184 °C.

Turning to `CC(=O)CC(C)(C)Cn1c(C)nc2c(N)nc3ccccc3c21`, the melting point is 223 to 225 °C.

On to `COc1ccc(CNC(=O)CCC(=O)c2ccc3[nH]c4ncc(Cl)cc4c3c2)cc1`, for which the melting point was determined as 228 °C.

On to `O=CNc1cccc2c1SC1=NCCN12`, for which the melting point worked out at 217 °C.

Compound `COc1cncnc1N1CCN(CCCc2c[nH]c3ccc(Nc4cc(=O)c4=O)cc23)CC1C` (stereo not given) yielded a melting point of 191 to 193 °C.
